pIC50: −log10 of the molar value. A value given as a limit tells only on which side of the number the result lay.

As a reminder, the pIC50 is the negative decadic logarithm of the IC50, by convention in mol/L.

The target in test [1] is ACL (Homo sapiens (Human), UniProt P53396). In words: ADP-Glo Assay. It is filed as biochemical. The conditions noted are these: 3 nM ACL, 15 μM ATP, 3 μM CoA, 300 μM Citrate. The method in brief: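 Human ACL (3 nM) preincubated with compound 15 min at 25 °C, then reacted 60 min at 25 °C with 15 μM ATP, 3 μM CoA, 300 μM citrate, 0.01% Brij35, 4 mM DTT, 1% DMSO. ADP measured by ADP-Glo luminescence. Compounds tested from 30 or 100 μM top concentration, 3-fold dilutions, 11 points, duplicates.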
On the technique in general: ADP-Glo first removes unused ATP, then detects ADP through luciferase.

Test [2] relates to HepG2 cells. As to the kind of experiment: ACLY HepG2 14C-pyruvate incorporation assay with serum (IC50 Cholesterol). The class given is cell-based. The conditions noted are these: Homo sapiens, Table 7, with serum, IC50 Cholesterol per table title and b713 (column head prints Fatty Acid), read-out: ACLY HepG2 ^14C- Pyruvate Assay with serum IC50 Fatty Acid 96 well (IC50). On the procedure:
(§1) Example 30. ACLY HepG2 ^14C-Pyruvate Incorporation Assay with Serum
(§2) Compounds of the invention were also assayed in an ACLY HepG2 ^14C-pyruvate incorporation assay with serum (IC50 Cholesterol) and (IC50 Fatty Acid). The protocol of the assay (below) was followed:
(§3) HepG2 cells were seed at 5 k cells/well in 96-well cell culture plate in DMEM with 10% FBS (heat inactivated and 25 mM glucose). After 48 hours, the medium was replaced with fresh medium containing 10% FBS (heat inactivated and 25 mM glucose).
(§4) After 18 hours, the medium was replaced with 200 uL of DMEM (5.5 mM glucose without pyruvate) with or without FBS containing compounds (30, 10, 3.33, 1.11, 0.370, 0.123, 0.041 uM). DMSO concentration was 0.5%. The cells were incubated with compounds at 37° C. for 1 hour.
(§5) 2 μci of [14C]-pyruvate was added per well and the cell samples were incubated at 37° C., 5% CO2 for 5 hours.
(§6) The medium was removed and placed into a 96-well polypropylene deep well plate. 200 uL of 0.1N NaOH was added to each well at room temperature to dissolve cell monolayer. The remaining cell suspension was pooled with medium in a 96-well polypropylene deep well plate. 68 uL of 50% KOH was added to the plate containing medium and cell suspensions and capped.
(§7) Cells were incubated at 70° C. for 1 hour, and then cooled to room temperature.
6. Cholesterol Extraction
1 mL petroleum ether was added per well to extract non-saponifyable lipids (primarily sterols such as cholesterol), shaken vigorously, and centrifuged at 1000 rpm for 5 minutes. 500 μL of the petroleum ether layer was then transferred to a 96 well plate and 200 ul of H2O was added, shaken vigorously, and centrifuged at 1000 rpm for 5 minutes. The petroleum ether layer 500 ul was transferred to a new 96-well plate and evaporated to dryness with SpeedVac overnight. 200 μL of scintillation cocktail was then added and shaken and transferred to a 96 well optiplate and counted using the Microbeta Liquid Scintillation Counter.

For test [3], the system named is HepG2 cells. In words: ACLY HepG2 14C-pyruvate incorporation assay with serum (IC50 Fatty Acid). The class given is cell-based. The conditions noted are these: Homo sapiens, Table 8, with serum, read-out: ACLY HepG2 ^14C- Pyruvate Assay with serum IC50 Fatty Acid 96 well (IC50). The protocol:
as §1, §2, §3, §4, §5, §6, §7
400 ul of the remaining 500 ul petroleum ether layer was removed and discard. 1 mL petroleum ether was added to the well, shaken vigorously, and centrifuged at 1000 rpm for 5 minutes. All 1100 ul of the petroleum ether layer removed and discarded. The aqueous phase was then acidified with 500 uL of concentrated HCl, checking pH of one or two extracts to make sure pH below 1 (critical, check by PH paper).
8. Fatty acids extraction
1 mL of petroleum ether was added per well to extract saponifyable lipids (extracted as fatty acids originating from saponified lipids such as triglycerides and phospholipids), shaken vigorously, centrifuged at 1000 rpm for 5 min, and 500 uL of the petroleum ether layer was then transferred to a new 96-well deep well plate. Repeat petroleum ether extraction step one more time and pool the petroleum ether extracts. Evaporate to dryness with SpeedVac overnight. 200 μL of scintillation cocktail was added and shaken and transferred to a 96 well optiplate and counted using the Microbeta Liquid Scintillation Counter.

Test [4] deals with ACC1. The following applies: ACC1 isolated from rat, mouse, monkey and human; cited from earlier work.
In test [5] the test system is ACC2. The conditions noted are these: ACC2 isolated from rat, mouse, monkey and human; cited from earlier work.

Chain of ACL (P53396 whole entry, species assumed): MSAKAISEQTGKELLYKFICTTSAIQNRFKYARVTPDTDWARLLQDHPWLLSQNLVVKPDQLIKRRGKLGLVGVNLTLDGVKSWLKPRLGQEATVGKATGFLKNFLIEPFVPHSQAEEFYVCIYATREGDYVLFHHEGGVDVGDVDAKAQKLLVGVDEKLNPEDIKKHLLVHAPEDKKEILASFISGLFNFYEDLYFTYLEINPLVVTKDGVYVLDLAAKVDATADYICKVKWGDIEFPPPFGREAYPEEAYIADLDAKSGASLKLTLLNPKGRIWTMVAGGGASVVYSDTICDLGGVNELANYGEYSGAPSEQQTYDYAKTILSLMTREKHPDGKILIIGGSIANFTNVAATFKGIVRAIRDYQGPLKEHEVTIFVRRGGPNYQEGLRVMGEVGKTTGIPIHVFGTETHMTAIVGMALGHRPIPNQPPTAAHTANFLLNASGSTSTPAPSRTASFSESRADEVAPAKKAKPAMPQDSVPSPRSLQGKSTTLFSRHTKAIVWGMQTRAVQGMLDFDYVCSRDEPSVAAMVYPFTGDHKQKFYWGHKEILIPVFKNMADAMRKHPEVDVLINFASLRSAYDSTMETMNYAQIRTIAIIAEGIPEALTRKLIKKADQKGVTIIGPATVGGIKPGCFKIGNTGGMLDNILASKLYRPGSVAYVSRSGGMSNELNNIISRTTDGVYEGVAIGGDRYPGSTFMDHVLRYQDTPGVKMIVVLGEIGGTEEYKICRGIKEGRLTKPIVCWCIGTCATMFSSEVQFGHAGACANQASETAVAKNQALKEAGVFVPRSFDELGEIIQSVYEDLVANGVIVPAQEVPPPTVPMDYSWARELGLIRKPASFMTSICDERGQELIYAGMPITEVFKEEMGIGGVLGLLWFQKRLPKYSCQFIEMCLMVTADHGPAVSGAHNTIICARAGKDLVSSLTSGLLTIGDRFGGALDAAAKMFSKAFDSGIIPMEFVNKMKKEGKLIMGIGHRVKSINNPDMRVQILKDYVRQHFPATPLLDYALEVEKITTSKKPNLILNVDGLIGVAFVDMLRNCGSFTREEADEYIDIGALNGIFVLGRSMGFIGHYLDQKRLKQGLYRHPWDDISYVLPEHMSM

`COc1ccc(-c2cc3cc(Cl)ccc3n2S(=O)(=O)c2cc(Br)cc(Cl)c2O)cc1` [I-26, 4-bromo-2-chloro-6-((5-chloro-2-(4-methoxyphenyl)-1H-indol-1-yl)sulfonyl)phenol]: the negative logarithm of the IC50 (pIC50) is 4.70 to 6.30 in test [1], not below 5.00 in test [2] and not below 5.00 in test [3].

As to `N#Cc1ccc2c(c1)cc(-c1ccccc1)n2S(=O)(=O)c1cc(Br)cc(Cl)c1O` [I-48], the figures for the pIC50 in test [1], in test [2] and in test [3] were 4.70 to 6.30, not below 5.00 and not below 5.00, respectively.

On to `O=S(=O)(c1cc(Br)cc(Cl)c1O)n1c(-c2ccc(OC(F)(F)F)cc2)cc2cc(Cl)ccc21` [I-25, 4-bromo-2-chloro-6-((5-chloro-2-(4-(trifluoromethoxy)phenyl)-1H-indol-1-yl)sulfonyl)phenol], for which the figures for the pIC50 in test [1], in test [2] and in test [3] were 4.70 to 6.30, not below 5.00 and not below 5.00, respectively.

For `O=C(c1c2ccccc2cc2ccccc12)N1CCC(N2CCC[C@@H](C(=O)N3CCOCC3)C2)CC1` [CP-640186], the pIC50 in test [4] and in test [5] was approximately 7.22 throughout.

In the case of `O=S(=O)(c1cc(Br)cc(Cl)c1O)n1c(-c2ccccc2)cc2cc(Cl)ccc21` [I-1, 4-bromo-2-chloro-6-((5-chloro-2-phenyl-1H-indol-1-yl)sulfonyl)phenol], the pIC50 is 4.70 to 6.30 in test [1], not below 5.00 in test [2] and not below 5.00 in test [3].

For the compound `N#Cc1ccc2c(c1)cc(-c1ccc(OC(F)(F)F)cc1)n2S(=O)(=O)c1cc(F)cc(F)c1O` [I-81], the results for the pIC50 in test [1], in test [2] and in test [3] were 4.70 to 6.30, not below 5.00 and not below 5.00, respectively.

Regarding `Cc1c(-c2ccccc2)n(S(=O)(=O)c2cc(Br)cc(Cl)c2O)c2ccc(Cl)cc12` [I-47], the results for the pIC50 in test [1], in test [2] and in test [3] were 4.70 to 6.30, not below 5.00 and not below 5.00, respectively.

As for `O=S(=O)(c1cc(Br)cc(Cl)c1O)n1c(-c2cccc(F)c2)cc2cc(Cl)ccc21` [I-40], the pIC50 was 4.70 to 6.30 in test [1], not below 5.00 in test [2] and not below 5.00 in test [3].

As to `O=S(=O)(c1cc(Br)cc(Cl)c1O)n1c(-c2ccccc2)cc2cc(F)ccc21` [I-42], the pIC50 in test [1] is 4.70 to 6.30; in test [2], not below 5.00; in test [3], not below 5.00.

`O=S(=O)(c1cc(Br)cc(Cl)c1O)n1c(-c2cncs2)cc2cc(Cl)ccc21` [I-33, 4-bromo-2-chloro-6-((5-chloro-2-(thiazol-5-yl)-1H-indol-1-yl)sulfonyl)phenol]: the negative-log IC50 (pIC50) in test [1] was 4.70 to 6.30; in test [2] it was not below 5.00; in test [3] it was not below 5.00.

For the compound `O=S(=O)(c1cc(F)cc(F)c1O)n1c(-c2ccccc2)cc2cc(Cl)ccc21` [I-61], the pIC50 in test [1] was 4.70 to 6.30; in test [2] it was not below 5.00; in test [3] it was not below 5.00.

Compound `Cc1ncncc1-c1cc2cc(Cl)ccc2n1S(=O)(=O)c1cc(F)cc(F)c1O` [I-102] gave a pIC50 in test [1] of 4.70 to 6.30.

On to `Cc1cc2cc(Cl)ccc2n1S(=O)(=O)c1cc(Br)cc(Cl)c1O` [I-30, 4-bromo-2-chloro-6-((5-chloro-2-methyl-1H-indol-1-yl)sulfonyl)phenol], for which the figures for the pIC50 in test [1], in test [2] and in test [3] were 4.70 to 6.30, not below 5.00 and not below 5.00, respectively.

In test [1], `O=C(O)c1ccc2cc(-c3ccccc3)n(S(=O)(=O)c3cc(Br)cc(Cl)c3O)c2c1` [I-67] had a negative logarithm of the IC50 (pIC50) of 4.70 to 6.30.

As to `O=C(O)c1ccc(-c2cc3cc(Cl)ccc3n2S(=O)(=O)c2cc(Cl)cc(Cl)c2O)cc1` [I-59], the pIC50 in test [1] is 4.70 to 6.30.

As for `O=C(c1cn(S(=O)(=O)c2cc(Br)cc(Cl)c2O)c2ccc(Cl)cc12)N1CCC1` [I-163], the pIC50 in test [1] is 4.70 to 6.30.

`O=S(=O)(c1cc(Br)cc(Cl)c1O)n1c(-c2cccnc2)cc2cc(Cl)ccc21` [I-34] showed a pIC50 in test [1] of more than 6.30.

As to `NC(=O)c1cc(Cl)c(O)c(S(=O)(=O)n2c(-c3ccccc3)cc3cc(Cl)ccc32)c1` [I-79], in test [1], the negative-log IC50 (pIC50) is 4.70 to 6.30.

As for `O=C(NO)c1ccc2cc(-c3ccccc3)n(S(=O)(=O)c3cc(Br)cc(Cl)c3O)c2c1` [I-154], the pIC50 in test [1] is 4.70 to 6.30.

On to `Cc1cc2cc(Cl)ccc2n1S(=O)(=O)c1cc(-c2ccccc2)cc(Cl)c1O` [I-142], for which the pIC50 in test [1] was 4.70 to 6.30.

The compound `O=S(=O)(c1ccccc1O)n1c(-c2ccccc2)cc2cc(Cl)ccc21` [I-106, 2-((5-chloro-2-phenyl-1H-indol-1-yl)sulfonyl)phenol] showed a pIC50 in test [1] not above 4.70.

Consider `Cc1cc2cc(Cl)ccc2n1S(=O)(=O)c1cc(Cl)c(O)cc1Br` [I-149], for which, in test [1], the negative-log IC50 (pIC50) is 4.70 to 6.30.

In test [1], `O=C(O)c1cc(Cl)c(O)c(S(=O)(=O)N2CCc3ccc(-c4ccccc4)cc32)c1` [I-5] had a pIC50 of 4.70 to 6.30.

The compound `CN(C)C(=O)c1cc2cc(Cl)ccc2n1S(=O)(=O)c1cc(Cl)cc(Cl)c1O` [I-111] had a pIC50 in test [1] of 4.70 to 6.30.

`O=C(O)c1ccc2c(c1)cc(-c1ccccc1)n2S(=O)(=O)c1cc(Br)cc(Cl)c1O` [I-55] had a negative-log IC50 (pIC50) in test [1] of more than 6.30.

Regarding `O=S(=O)(c1cc(F)cc(F)c1O)n1c(-c2cnc(C(F)(F)F)nc2)cc2cc(Cl)ccc21` [I-137], the pIC50 in test [1] was 4.70 to 6.30.

`COc1ccc(-c2cc3cc(Cl)ccc3n2S(=O)(=O)c2cc(Br)cc(Cl)c2O)cn1` [I-28, 4-bromo-2-chloro-6-((5-chloro-2-(6-methoxypyridin-3-yl)-1H-indol-1-yl)sulfonyl)phenol]: the pIC50 was 4.70 to 6.30 in test [1], not below 5.00 in test [2] and not below 5.00 in test [3].

On to `Cc1c(C)n(S(=O)(=O)c2cc(Br)cc(Cl)c2O)c2ccc(Cl)cc12` [I-36], for which the pIC50 in test [1] is 4.70 to 6.30.

Compound `CN(C)C(=O)c1ccc2c(c1)cc(-c1ccccc1)n2S(=O)(=O)c1cc(Br)cc(Cl)c1O` [I-56] had a pIC50 in test [1] of 4.70 to 6.30.

Values taken from patent US11492341B2, “ACLY inhibitors and uses thereof” (Nimbus Artemis, Inc., priority 2018, dated 2022).
